# Entries after “also recorded” stand apart in the source; their conditions may differ.
# What was measured:
# [1] = system: isolated mouse ileum and colon strips; test: Ex vivo contractility of isolated ileum and colon strips; details: alone or with 10 μM loperamide
# Protocol: Whole-gut transit time was determined using an orally administered marker (200 μL, 5% Evans Blue, 5% gum Arabic) and measuring the time of its appearance in stool. Mice were administered loperamide and CFTRact-J027 (10 mg/kg) or vehicle intraperitoneally at zero time. For ex vivo contractility measurements, mice were euthanized by avertin overdose (200 mg/kg, 2,2,2-tribromethanol, Sigma-Aldrich) and ileum and colon segments of ˜2 cm length were isolated and washed with Krebs-Henseleit buffer. The ends of the intestinal segments were tied, connected to a force transducer (Biopac Systems, Goleta, Calif., USA) and tissues were transferred to an organ chamber (Biopac Systems) containing Krebs-Henseleit buffer at 37° C. aerated with 95% O2, 5% CO2. Ileum and colon were stabilized for 60 min with resting tensions of 0.5 and 0.2 g respectively, and solutions were changed every 15 min. Effects of CFTRact-J027 on baseline and loperamide-suppressed isometric intestinal contractions were recorded.
# In vivo intestinal transit and ex vivo intestinal contractility. Whole-gut transit time was determined using an orally administered marker (200 μL, 5% Evans Blue, 5% gum Arabic) and measuring the time of its appearance in stool. […] Effects of CFTRact-J027 on baseline and loperamide-suppressed isometric intestinal contractions were recorded.
# [2] = system: closed mid-jejunal loops; test: In vivo intestinal fluid secretion in closed mid-jejunal loops; set-up: species or system mouse; details: 90 min
# Protocol: Mice (wildtype or CF) were given access to 5% dextrose water but not solid food for 24 h before experiments. Mice were anesthetized with isoflurane and body temperature was maintained during surgery at 36-38° C. using a heating pad. A small abdominal incision was made to expose the small intestine, and closed mid-jejunal loops (length 2-3 cm) were isolated by sutures. Loops were injected with 100 μL vehicle alone or 100 μg CFTRact-J027 in vehicle. The abdominal incision was closed with sutures, and mice were allowed to recover from anesthesia. Intestinal loops were removed at 90 min and loop length and weight were measured to quantify fluid secretion. Intestinal absorption was measured in CF mice (to prevent secretion) as described above, except that the loops were removed at 0 or 30 min. Absorption was calculated as 1−(loop weight at 0 min−loop weight at 30 min)/loop weight at 0 min.
# In vivo intestinal secretion and absorption. Mice (wildtype or CF) were given access to 5% dextrose water but not solid food for 24 h before experiments. […] Intestinal loops were removed at 90 min and loop length and weight were measured to quantify fluid secretion. Intestinal absorption was measured in CF mice (to prevent secretion) as described above, except that the loops were removed at 0 or 30 min. Absorption was calculated as 1−(loop weight at 0 min−loop weight at 30 min)/loop weight at 0 min.
# [3] = system: cAMP; test: cAMP GloSensor luminescence assay in FRT cells; format: cell-based, rat
# Protocol: Intracellular cAMP activity was measured using a GloSensor luminescence assay (Promega Corp., Madison, Wis., USA). FRT null cells were stably transfected with the pGloSensor cAMP plasmid and plated onto white 96-well microplates and grown to confluence. Cells were washed three times with PBS and incubated with 5 μM CFTRact-J027 for 10 min in the absence and presence of 100 nM forskolin. cAMP was assayed according to the manufacturer's instructions.
# Intracellular cAMP activity was measured using a GloSensor luminescence assay (Promega Corp., Madison, Wis., USA). FRT cells stably transfected with the pGloSensor cAMP plasmid (Promega Corp.) were cultured in white 96-well microplates (Corning Costar) overnight. Cells were then washed three times with PBS and incubated with 5 μM test compound for 10 min in the absence and presence of 100 nM forskolin.
# cAMP assay. Intracellular cAMP activity was measured using a GloSensor luminescence assay (Promega Corp., Madison, Wis., USA). FRT null cells were stably transfected with the pGloSensor cAMP plasmid and plated onto white 96-well microplates and grown to confluence. […]
# cAMP and cytotoxicity assays. Intracellular cAMP activity was measured using a GloSensor luminescence assay (Promega Corp., Madison, Wis., USA). […]
smiles,measurement,setting,value
"Nc1ccc([N+](=O)[O-])cc1-c1nc2ccccc2n(Cc2ccccc2)c1=O [CFTRact-J027, 3-(2-amino-5-nitrophenyl)-1-benzylquinoxalin-2(1H)-one]",intestinal contraction,[1],no effect
same,increase in loop weight/length ratio,"[2]; 100 μg per loop, wild-type mice",140%
same,loop fluid secretion in cystic fibrosis mice,[2]; CF mice,without effect
same,"cellular cAMP, added together with forskolin",[3]; 5 μM + 100 nM forskolin,does not further increase cAMP
same,"cellular cAMP, compound alone","[3]; 5 μM, 10 min",without causing elevation of cytoplasmic cAMP; also recorded: does not elevate cellular cAMP

# From patent US11230535B2, “CFTR regulators and methods of use thereof” (THE REGENTS OF THE UNIVERSITY OF CALIFORNIA, priority 2015, dated 2022)
